Results: patent US20240018146A1, “COMPOSITIONS AND METHODS OF USING THE SAME FOR TREATMENT OF NEURODEGENERATIVE AND MITOCHONDRIAL DISEASE” (MITOKININ, INC., priority 2020, published 2024)
Read-outs that look alike come from different tables or passages of the source.

Key:
Type in all cases: cell-based
[1] = test system: HeLa MKYP cells; assay: Human mitophagy assay (HeLa mKeima assay, FACS)
How it was run: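 Mitophagy, read by FACS as the share of cells showing the lysosomal mtKeima emission shift, followed 6 h of 1 uM FCCP/oligomycin stimulation. Before that, HeLa MKYP cells spent 16 h with compound over a concentration range.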

[2] = Mitotoxicity / Mitotox safety margin (therapeutic window)
[3] = test system: HeLa MKYP cells; assay: Cell death measured by DAPI staining, with 1 μM FCCP/oligomycin or no toxin (no FO); conditions: for Max cell death at 25 μM compound, 1 uM FO (%) / Cell death at 25 μM (no FO) (%): 25 μM compound
How it was run: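 Cell death was read by DAPI staining after 6–6.5 h compound exposure in HeLa MKYP cells, either with 1 μM FCCP/oligomycin or without toxin. H2O2 served as the cell-death control.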

[4] = Homo sapiens, HeLa, read-out: Mitophagy induction EC50
[5] = read-out: Mitophagy induction EC50
[6] = Homo sapiens, HeLa, HeLa mKeima assay, read-out: Mitophagy EC50 (HeLa mKeima assay)

| SMILES | EC50 [1, 4] | Mito-Safety Index (highest safe dose/EC50) [2] | Highest safe dose (μM) (mitotox or cytotox) [2] | Highest safe dose (cytotoxicity; no FO; safe means DAPI+ <20%) [3] | Max % death with 1 μM FO [3] | EC50 [1, 5] | EC50 [1, 6] | Mitotox safety margin (Therapeutic window) [2] | Max cell death at 25 μM compound, 1 uM FO (%) [3] | Cell death at 25 μM (no FO) (%) [3] |
| --- | --- | --- | --- | --- | --- | --- | --- | --- | --- | --- |
| C[C@@H]1CN([C@H]2COc3cc(F)ccc3[C@@H]2Nc2ncnc3[nH]c(C(F)(F)F)cc23)C[C@H](C)O1 (single isomer, unassigned) [EP-0040773] | 130 nM | 77.04 | 9.9 µM | 25.0 µM | 27.3% |  |  |  |  |  |
| C[C@@H]1CN([C@H]2COc3cc(F)ccc3[C@@H]2Nc2ncnc3[nH]c(C4CC4)cc23)C[C@H](C)O1 (single isomer, unassigned) [EP-0040842] | 20 nM | 82.00 | 2.0 µM | 25.0 µM | 22.5% |  |  |  |  |  |
| FC(F)(F)c1cc2c(N[C@@H]3c4ccccc4OC[C@@H]3C3CCCOC3)ncnc2[nH]1 (single isomer, unassigned) [EP-0041005] | 1450 nM | 17.30 | 25.0 µM | 25.0 µM | 24.8% |  |  |  |  |  |
| COC[C@@H]1CCN([C@H]2COc3ccccc3[C@@H]2Nc2ncnc3[nH]c(C(F)(F)F)cc23)C1 (single isomer, unassigned) [EP-0041071] |  | 47.29 | 3.3 µM | 25.0 µM | 12.6% | 70 nM |  |  |  |  |
| COC[C@H]1CCN([C@H]2COc3ccccc3[C@@H]2Nc2ncnc3[nH]c(C(F)(F)F)cc23)C1 (single isomer, unassigned) [EP-0041175] |  | 30.68 | 4.5 µM | 25.0 µM | 8.8% | 150 nM |  |  |  |  |
| [2H]C([2H])([2H])OC1CN([C@H]2COc3ccccc3[C@@H]2Nc2ncnc3[nH]c(C(F)(F)F)cc23)C1 (single isomer, unassigned) [EP-0041326] |  | 56.49 | 19.8 µM | 25.0 µM | 7.5% | 350 nM |  |  |  |  |
| COC[C@@H]1CCN(C2COc3ccccc3C2Nc2ncnc3[nH]c(C4CC4)cc23)C1 (single isomer, unassigned) [EP-0041514] |  | 38.63 | 1.4 µM | 25.0 µM | 8.1% | 30 nM |  |  |  |  |
| FC(F)OC1CN([C@H]2COc3ccccc3[C@@H]2Nc2ncnc3[nH]c(C(F)(F)F)cc23)C1 (single isomer, unassigned) [EP-0041541] | 290 nM | 28.61 | 8.3 µM | 25.0 µM | 19.1% |  |  |  |  |  |
| c1ccc2c(c1)CC[C@H](N1C[C@H]3COC[C@H]3C1)[C@H]2Nc1ncnc2[nH]c(C3CC3)cc12 [EP-0039713] | 100 nM | 9.46 | 0.9 µM | 25.0 µM | 26.3% |  | 100 nM | + (+ = <10) | 19.2% | 12.9% |
| CN(c1ncnc2[nH]c(C(F)(F)F)cc12)C1c2ccccc2CCC1N1C[C@H]2COC[C@H]2C1 (stereo partly drawn) [EP-0039742] | 3360 nM | 7.45 | 25.0 µM | 25.0 µM | 20.4% |  | 3330 nM |  | 13.8% | 2.45% |
| CN(c1ncnc2[nH]c(C3CC3)cc12)C1c2ccccc2CCC1N1C[C@H]2COC[C@H]2C1 (stereo partly drawn) [EP-0039743] | 4170 nM | 5.99 | 25.0 µM | 25.0 µM | 28.2% |  | 3880 nM |  | 33.7% | 11.6% |
| c1ccc2c(c1)OC[C@H](N1CCOCC1)[C@H]2Nc1ncnc2[nH]c(C3CC3)cc12 [EP-0040080] | 480 nM | 51.66 | 25.0 µM | 25.0 µM | 13.9% |  | 590 nM | ++ (++ = 10 < x < 20) | 16% | 4.73% |
| N#Cc1ccc2c(c1)CC[C@H](N1C[C@H]3COC[C@H]3C1)[C@H]2Nc1ncnc2[nH]c(C(F)(F)F)cc12 [EP-0040120] | 2300 nM |  | 8.3 µM | 8.3 µM | 93.5% |  |  |  |  |  |
| FC(F)(F)c1cc2c(N[C@H]3c4ccccc4OC[C@@H]3N3C[C@H]4COC[C@H]4C3)ncnc2[nH]1 [EP-0040138] | 770 nM | 32.50 | 25.0 µM | 25.0 µM | 9.4% |  |  |  |  |  |
| Fc1ccc2c(c1)CC[C@H](N1C[C@H]3COC[C@@H]3C1)[C@H]2Nc1ncnc2[nH]c(C3CC3)cc12 [EP-0040395] | 210 nM | 56.09 | 11.7 µM | 25.0 µM | 8.1% |  |  |  |  |  |
| FC(F)(F)c1cc2c(N[C@H]3c4ccccc4OC[C@@H]3C3CCOCC3)ncnc2[nH]1 [EP-0040583] | 240 nM | 104.01 | 25.0 µM | 25.0 µM | 17.8% |  |  |  |  |  |
